Tests used:
[1] = tested on: giant foxtail; assay: Test B pre/postemergence giant foxtail; assay type: in vivo, Setaria faberii
Method in brief: (§1)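 Herbicidal effect was estimated by eye on a ten-point control scale after plants spent twelve to sixteen days in a greenhouse following soil or foliar treatment. Foliar sprays targeted plants at one to four leaves; all doses were formulated in a non-phytotoxic solvent with surfactant.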

[2] = tested on: corn; assay: Test B pre/postemergence corn; assay type: in vivo, Zea mays
Method in brief: as §1

[3] = tested on: rape; assay: Test B pre/postemergence rape; assay type: in vivo, Brassica napus; conditions: for Plant response rating, Rape: scale of 0 to 10 where 0 is no effect and 10 is complete control
Method in brief: as §1

[4] = tested on: duck salad; assay: Test B flood test duck salad; assay type: in vivo, Heteranthera limosa
Method in brief: (§2)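 Flood test on plants grown to the 2-leaf stage; treated plants kept in greenhouse twelve to sixteen days, then visually rated against controls on a 0 (no effect) to 10 (complete control) scale.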

[5] = tested on: pigweed; assay: Test B pre/postemergence pigweed; assay type: in vivo, Amaranthus retroflexus; conditions: for Plant response rating, Redroot pigweed: scale of 0 to 10 where 0 is no effect and 10 is complete control
Method in brief: as §1

[6] = tested on: velvetleaf; assay: Test B pre/postemergence velvetleaf; assay type: in vivo, Abutilon theophrasti; conditions: for Plant response rating, Velvetleaf: scale of 0 to 10 where 0 is no effect and 10 is complete control
Method in brief: as §1

[7] = tested on: morningglory; assay: Test B pre/postemergence morningglory; assay type: in vivo, Ipomoea hederacea; conditions: for Plant response rating, Morningglory: scale of 0 to 10 where 0 is no effect and 10 is complete control
Method in brief: as §1

[8] = tested on: smallflower flatsedge; assay: Test B flood test smallflower flatsedge; assay type: in vivo, Cyperus difformis
Method in brief: as §2

[9] = tested on: wild oat; assay: Test B pre/postemergence wild oat; assay type: in vivo, Avena fatua; conditions: for Plant response rating, Wild oats: scale of 0 to 10 where 0 is no effect and 10 is complete control
Method in brief: as §1

[10] = tested on: crabgrass; assay: Test B pre/postemergence crabgrass; assay type: in vivo, Digitaria sanguinalis
Method in brief: as §1

[11] = tested on: purple nutsedge; assay: Test B pre/postemergence purple nutsedge; assay type: in vivo, Cyperus rotundus; conditions: for Plant response rating, Nutsedge: scale of 0 to 10 where 0 is no effect and 10 is complete control
Method in brief: as §1

[12] = tested on: sugar beet; assay: Test B pre/postemergence sugar beet; assay type: in vivo, Beta vulgaris; conditions: for Plant response rating, Sugarbeets: scale of 0 to 10 where 0 is no effect and 10 is complete control
Method in brief: as §1

[13] = tested on: rice; assay: Test B flood test rice; assay type: in vivo, Oryza sativa
Method in brief: as §2

[14] = tested on: soybean; assay: Test B pre/postemergence soybean; assay type: in vivo, Glycine max; conditions: for Plant response rating, Soybean: scale of 0 to 10 where 0 is no effect and 10 is complete control
Method in brief: as §1

[15] = tested on: wheat; assay: Test B pre/postemergence wheat; assay type: in vivo, Triticum aestivum; conditions: for Plant response rating, Wheat: scale of 0 to 10 where 0 is no effect and 10 is complete control
Method in brief: as §1

[16] = tested on: bamyardgrass; assay: Test B flood test barnyardgrass; assay type: in vivo, Echinochloa crus-galli
Method in brief: as §2

[17] = tested on: blackgrass; assay: Test B pre/postemergence blackgrass; assay type: in vivo, Alopecurus myosuroides
Method in brief: as §1

[18] = tested on: cocklebur; assay: Test B pre/postemergence cocklebur; assay type: in vivo, Xanthium strumarium
Method in brief: as §1

[19] = tested on: surinam grass; assay: Test B pre/postemergence surinam grass; assay type: in vivo, Brachiaria decumbens
Method in brief: as §1

[20] = Postemergence, Rate 250 g/ha, scale 0 to 10
[21] = Postemergence, Rate 500 g/ha, scale of 0 to 10 where 0 is no effect and 10 is complete control
[22] = Preemergence, Rate 62 g/ha, scale of 0 to 10 where 0 is no effect and 10 is complete control
[23] = Preemergence, Rate 125 g/ha, scale of 0 to 10 where 0 is no effect and 10 is complete control
[24] = Preemergence, Rate 250 g/ha, scale 0 to 10, 0 is no effect, 10 is complete control
[25] = Preemergence, Rate 500 g/ha, scale 0 to 10, 0 is no effect, 10 is complete control
[26] = Rate 62 g/ha, Postemergence, scale 0 to 10 (0 no effect, 10 complete control)
[27] = Rate 125 g/ha, Postemergence, scale 0 to 10, 0 is no effect, 10 is complete control
[28] = Rate 62 g/ha, flood test species, Pre-emergence, visual evaluation after twelve to sixteen days
[29] = Rate 125 g/ha, under heading Pre-emergence, flood test species, visual evaluation after twelve to sixteen days
[30] = Rate 250 g/ha, Pre-emergence (flood test species), scale 0 to 10, 0 is no effect, 10 is complete control
[31] = Rate 500 g/ha, Pre-emergence, flood test species, scale 0 to 10 (0 no effect, 10 complete control)

CC(C)N(C(=O)n1oc(=O)n(CCS(C)(=O)=O)c1=O)c1ccc(F)cc1 [Compound 453]
6: Redroot pigweed plant response rating [5, 24] | Velvetleaf plant response rating [6, 25] | Plant response rating, Crabgrass [10, 23] | Crabgrass plant response rating [10, 24] | Wheat plant response rating [15, 25] | Blackgrass plant response rating [17, 20] | Blackgrass plant response rating [17, 21] | B. signalgrass plant response rating [19, 24] | B. signalgrass plant response rating [19, 25]
7: Giant foxtail plant response rating [1, 20] | Plant response rating, Giant foxtail [1, 22] | Crabgrass plant response rating [10, 25]
0: Corn plant response rating [2, 20] | Corn plant response rating [2, 21] | Plant response rating, Corn [2, 22] | Plant response rating, Corn [2, 23] | Corn plant response rating [2, 24] | Corn plant response rating [2, 26] | Corn plant response rating [2, 27] | Rape plant response rating [3, 20] | Plant response rating, Rape ([3]; Preemergence, Rate 62 g/ha) | Plant response rating, Rape ([3]; Preemergence, Rate 125 g/ha) | Rape plant response rating [3, 24] | Rape plant response rating [3, 26] | Rape plant response rating [3, 27] | Plant response rating, Ducksalad (0 to 10 scale, 0 is no effect, 10 is complete control) [4, 28] | Ducksalad plant response rating (0 to 10 scale, 0 is no effect, 10 is complete control) [4, 29] | Ducksalad plant response rating [4, 30] | Ducksalad plant response rating [4, 31] | Redroot pigweed plant response rating [5, 20] | Plant response rating, Redroot pigweed ([5]; Preemergence, Rate 62 g/ha) | Redroot pigweed plant response rating [5, 26] | Redroot pigweed plant response rating [5, 27] | Velvetleaf plant response rating [6, 20] | Plant response rating, Velvetleaf ([6]; Preemergence, Rate 62 g/ha) | Plant response rating, Velvetleaf ([6]; Preemergence, Rate 125 g/ha) | Velvetleaf plant response rating [6, 26] | Velvetleaf plant response rating [6, 27] | Plant response rating, Morningglory ([7]; Preemergence, Rate 62 g/ha) | Plant response rating, Morningglory ([7]; Preemergence, Rate 125 g/ha) | Morningglory plant response rating [7, 24] | Morningglory plant response rating [7, 26] | Morningglory plant response rating [7, 27] | Plant response rating, S. Flatsedge (0 to 10 scale, 0 is no effect, 10 is complete control) [8, 28] | S. Flatsedge plant response rating (0 to 10 scale, 0 is no effect, 10 is complete control) [8, 29] | S. Flatsedge plant response rating [8, 30] | S. Flatsedge plant response rating [8, 31] | Wild oats plant response rating [9, 20] | Plant response rating, Wild oats ([9]; Preemergence, Rate 62 g/ha) | Plant response rating, Wild oats ([9]; Preemergence, Rate 125 g/ha) | Wild oats plant response rating [9, 26] | Wild oats plant response rating [9, 27] | Crabgrass plant response rating [10, 26] | Nutsedge plant response rating [11, 20] | Plant response rating, Nutsedge ([11]; Preemergence, Rate 62 g/ha) | Plant response rating, Nutsedge ([11]; Preemergence, Rate 125 g/ha) | Nutsedge plant response rating [11, 24] | Nutsedge plant response rating [11, 26] | Nutsedge plant response rating [11, 27] | Sugarbeets plant response rating [12, 20] | Plant response rating, Sugarbeets ([12]; Preemergence, Rate 62 g/ha) | Plant response rating, Sugarbeets ([12]; Preemergence, Rate 125 g/ha) | Sugarbeets plant response rating [12, 26] | Sugarbeets plant response rating [12, 27] | Plant response rating, Rice (0 to 10 scale, 0 is no effect, 10 is complete control) [13, 28] | Rice plant response rating (0 to 10 scale, 0 is no effect, 10 is complete control) [13, 29] | Rice plant response rating [13, 30] | Rice plant response rating [13, 31] | Plant response rating, Soybean ([14]; Preemergence, Rate 62 g/ha) | Plant response rating, Soybean ([14]; Preemergence, Rate 125 g/ha) | Soybean plant response rating [14, 24] | Soybean plant response rating [14, 25] | Wheat plant response rating [15, 20] | Plant response rating, Wheat ([15]; Preemergence, Rate 62 g/ha) | Plant response rating, Wheat ([15]; Preemergence, Rate 125 g/ha) | Wheat plant response rating [15, 26] | Wheat plant response rating [15, 27] | Plant response rating, Barnyardgrass (0 to 10 scale, 0 is no effect, 10 is complete control) [16, 28] | Barnyardgrass plant response rating (0 to 10 scale, 0 is no effect, 10 is complete control) [16, 29] | Barnyardgrass plant response rating [16, 30] | Barnyardgrass plant response rating [16, 31] | Plant response rating, Blackgrass [17, 22] | Plant response rating, Blackgrass [17, 23] | Blackgrass plant response rating [17, 26] | Blackgrass plant response rating [17, 27] | Cocklebur plant response rating [18, 20] | Cocklebur plant response rating [18, 21] | Plant response rating, Cocklebur [18, 22] | Plant response rating, Cocklebur [18, 23] | Cocklebur plant response rating [18, 24] | Cocklebur plant response rating [18, 25] | Cocklebur plant response rating [18, 26] | Cocklebur plant response rating [18, 27] | Plant response rating, B. signalgrass [19, 22] | B. signalgrass plant response rating [19, 26] | B. signalgrass plant response rating [19, 27]
4: Plant response rating, Redroot pigweed ([5]; Preemergence, Rate 125 g/ha) | Crabgrass plant response rating [10, 20]
2: Velvetleaf plant response rating [6, 24] | Morningglory plant response rating [7, 20] | Wild oats plant response rating [9, 24] | Sugarbeets plant response rating [12, 24] | B. signalgrass plant response rating ([19]; Postemergence, Rate 250 g/ha, scale 0 to 10, 0 no effect, 10 complete control) | Plant response rating, B. signalgrass [19, 23]
10: Giant foxtail plant response rating [1, 24] | Giant foxtail plant response rating [1, 25] | Redroot pigweed plant response rating [5, 25] | Crabgrass plant response rating [10, 21]
1: Soybean plant response rating [14, 20] | Soybean plant response rating [14, 26] | Soybean plant response rating [14, 27]
9: Giant foxtail plant response rating [1, 21] | Plant response rating, Giant foxtail [1, 23]
3: Giant foxtail plant response rating [1, 26] | Corn plant response rating [2, 25] | Rape plant response rating [3, 25] | Morningglory plant response rating [7, 25] | Wheat plant response rating [15, 24] | Blackgrass plant response rating [17, 24]
8: Wild oats plant response rating [9, 25]
5: Giant foxtail plant response rating [1, 27] | Plant response rating, Crabgrass [10, 22] | Sugarbeets plant response rating [12, 25] | Blackgrass plant response rating [17, 25] | B. signalgrass plant response rating [19, 21]
